The structures appear in SMILES notation. Where only a bound is given, the exact number is not on record here.

In general, IC50 refers to the concentration that inhibits the measured activity by half.

The target in assay [1] is Neuraminidase (Influenza A virus (A/Puerto Rico/8/1934(H1N1)), UniProt P03468). The assay is described as follows: Inhibition of influenza A sialidase in vitro.
Assay [2] concerns Influenza A virus. In words: In vitro antiviral activity against Influenza A. It counts as functional, organism-based.
The subject of assay [3] is Influenza A virus. The assay is described as follows: Inhibitory concentration by Plaque reduction assay; range-1.9-20. It counts as functional, organism-based. A general note: In a plaque reduction assay, fewer plaques than in the control indicate reduced infectivity or spread.
The subject of assay [4] is Influenza A virus. The assay is described as follows: Inhibitory concentration by Plaque reduction assay; range-1.9-12. It counts as functional, organism-based.

Neuraminidase (Influenza A virus (A/Puerto Rico/8/1934(H1N1)), UniProt P03468), sequence (P03468 whole entry): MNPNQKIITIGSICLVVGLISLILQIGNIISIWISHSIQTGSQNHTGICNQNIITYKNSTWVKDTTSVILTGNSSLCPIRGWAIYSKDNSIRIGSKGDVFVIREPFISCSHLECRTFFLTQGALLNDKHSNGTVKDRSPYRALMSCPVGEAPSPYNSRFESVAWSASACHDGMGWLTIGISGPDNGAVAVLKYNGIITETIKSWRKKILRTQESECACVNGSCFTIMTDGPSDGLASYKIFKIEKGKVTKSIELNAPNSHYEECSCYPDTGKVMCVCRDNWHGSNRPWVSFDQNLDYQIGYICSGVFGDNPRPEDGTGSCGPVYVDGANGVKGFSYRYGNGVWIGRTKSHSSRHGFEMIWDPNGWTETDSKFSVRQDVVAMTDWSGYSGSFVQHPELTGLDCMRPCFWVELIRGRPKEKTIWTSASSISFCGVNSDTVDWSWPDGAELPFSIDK

As to `CC(=O)N[C@H]1[C@H]([C@H](OCC2CCCCC2)[C@H](O)CO)OC(C(=O)O)=C[C@@H]1NC(=N)N.O=C(O)C(F)(F)F`, the IC50 is 0.0675 µM in assay [1] and 3 ng/mL in the assay with Influenza A virus [2].

In the case of `CCO[C@H](CC)[C@@H]1OC(C(=O)O)=C[C@H](N=C(N)N)[C@H]1NC(C)=O.O=C(O)C(F)(F)F`, the IC50 was 0.0793 µM in assay [1] and 16 ng/mL in the assay on Influenza A virus [2].

In the case of `CCCCCCCCCCCCO[C@@H]([C@@H]1OC(C(=O)O)=C[C@H](N=C(N)N)[C@H]1NC(C)=O)[C@H](O)CO.O=C(O)C(F)(F)F`, the results for the IC50 (in assay [1]; in the assay on Influenza A virus [2]) were 0.0807 µM and 2.2 ng/mL, respectively. For the compound `CCCO[C@@H]([C@@H]1OC(C(=O)O)=C[C@H](N=C(N)N)[C@H]1NC(C)=O)[C@H](O)CO.O=C(O)C(F)(F)F`, the IC50 is 0.0627 µM in assay [1] and 1.5 ng/mL in the assay on Influenza A virus [2]. For the compound `CCCO[C@H](CC)[C@@H]1OC(C(=O)O)=C[C@H](N=C(N)N)[C@H]1NC(C)=O.O=C(O)C(F)(F)F`, the IC50 in assay [1] is 0.0309 µM; in the assay on Influenza A virus [2] it was 9 ng/mL. The matching figures for `CCCCCCCCCCCCO[C@H](CC)[C@@H]1OC(C(=O)O)=C[C@H](N=C(N)N)[C@H]1NC(C)=O.O=C(O)C(F)(F)F`: 0.0487 µM and above 50 ng/mL. Turning to `CC(=O)NCCO[C@@H]([C@@H]1OC(C(=O)O)=C[C@H](N=C(N)N)[C@H]1NC(C)=O)[C@H](O)CO.O=C(O)C(F)(F)F`, the values for the IC50 (in assay [1]; in the assay on Influenza A virus [2]) were 0.0184 µM and 2.4 ng/mL, respectively. The matching figures for `CCCCCCCCO[C@H](CC)[C@@H]1OC(C(=O)O)=C[C@H](N=C(N)N)[C@H]1NC(C)=O.O=C(O)C(F)(F)F`: 0.0315 µM and 40 ng/mL. In assay [1], `CCO[C@@H]([C@@H]1OC(C(=O)O)=C[C@H](N=C(N)N)[C@H]1NC(C)=O)[C@H](O)CO` gave an IC50 of 0.0557 µM.

As for `CC(=O)N[C@H]1[C@H]([C@H](OCCN)[C@H](O)CO)OC(C(=O)O)=C[C@@H]1NC(=N)N.O=C(O)C(F)(F)F`, the figures for the IC50 (in assay [1]; in the assay on Influenza A virus [2]) were 0.0975 µM and 7.5 ng/mL, respectively. For the compound `CCCCCO[C@H](CC)[C@@H]1OC(C(=O)O)=C[C@H](N=C(N)N)[C@H]1NC(C)=O.O=C(O)C(F)(F)F`, the figures for the IC50 (in assay [1]; in the assay with Influenza A virus [2]) were 0.0188 µM and 3.8 ng/mL, respectively. As for `CCCCCCCCCCCCCCO[C@@H]([C@@H]1OC(C(=O)O)=C[C@H](N=C(N)N)[C@H]1NC(C)=O)[C@H](O)CO.O=C(O)C(F)(F)F`, the IC50 in assay [1] is 0.408 µM; in the assay with Influenza A virus [2], 11 ng/mL.

Regarding `CC(=O)N[C@H]1[C@H]([C@H](OCCO)[C@H](O)CO)OC(C(=O)O)=C[C@@H]1NC(=N)N.O=C(O)C(F)(F)F`, the IC50 was 0.021 µM in assay [1] and 1.8 ng/mL in the assay with Influenza A virus [2]. With `CC(=O)N[C@H]1[C@H]([C@H](OCCC2CCCCC2)[C@H](O)CO)OC(C(=O)O)=C[C@@H]1NC(=N)N.O=C(O)C(F)(F)F`, the results for the IC50 (in assay [1]; in the assay with Influenza A virus [2]) were 0.0473 µM and 1.9 ng/mL, respectively. For `CCCCCCCCO[C@@H]([C@@H]1OC(C(=O)O)=C[C@H](N=C(N)N)[C@H]1NC(C)=O)[C@H](O)CO.O=C(O)C(F)(F)F`, the results for the IC50 (in assay [1]; with Influenza A virus [2]) were 0.0362 µM and 1.8 ng/mL, respectively. Consider `CCCCCO[C@@H]([C@@H]1OC(C(=O)O)=C[C@H](N=C(N)N)[C@H]1NC(C)=O)[C@H](O)CO.O=C(O)C(F)(F)F`, for which the IC50 in assay [1] is 0.0277 µM; in the assay with Influenza A virus [2], 2 ng/mL. As to `CC(=O)N[C@H]1[C@H]([C@H](OCCN=[N+]=[N-])[C@H](O)CO)OC(C(=O)O)=C[C@@H]1NC(=N)N.O=C(O)C(F)(F)F`, the figures for the IC50 (in assay [1]; with Influenza A virus [2]) were 0.0287 µM and 1.5 ng/mL, respectively. In the case of `CC(=O)N[C@H]1[C@H]([C@H](O)[C@H](O)CO)OC(C(=O)O)=C[C@@H]1NC(=N)N.O=C(O)C(F)(F)F` [ZANAMIVIR TFA], the IC50 in the assay on Influenza A virus [3] and with Influenza A virus [4] was 1.9 ng/mL each time.

These data come from ChEMBL document CHEMBL1135181, “Synthesis and anti-influenza virus activity of 7-O-alkylated derivatives related to zanamivir” (Bioorg Med Chem Lett, 2002).
